# Molecular target: T1, cyclic GMP-AMP synthase (cGAS) (Homo sapiens, UniProt Q8N884)
# T1 construct: purified recombinant full-length cGAS
# Assay: in vitro cGAS enzymatic assay, cGAMP production measured by HPLC-MS
# Assay type: biochemical
# T1 sequence (Q8N884 whole entry): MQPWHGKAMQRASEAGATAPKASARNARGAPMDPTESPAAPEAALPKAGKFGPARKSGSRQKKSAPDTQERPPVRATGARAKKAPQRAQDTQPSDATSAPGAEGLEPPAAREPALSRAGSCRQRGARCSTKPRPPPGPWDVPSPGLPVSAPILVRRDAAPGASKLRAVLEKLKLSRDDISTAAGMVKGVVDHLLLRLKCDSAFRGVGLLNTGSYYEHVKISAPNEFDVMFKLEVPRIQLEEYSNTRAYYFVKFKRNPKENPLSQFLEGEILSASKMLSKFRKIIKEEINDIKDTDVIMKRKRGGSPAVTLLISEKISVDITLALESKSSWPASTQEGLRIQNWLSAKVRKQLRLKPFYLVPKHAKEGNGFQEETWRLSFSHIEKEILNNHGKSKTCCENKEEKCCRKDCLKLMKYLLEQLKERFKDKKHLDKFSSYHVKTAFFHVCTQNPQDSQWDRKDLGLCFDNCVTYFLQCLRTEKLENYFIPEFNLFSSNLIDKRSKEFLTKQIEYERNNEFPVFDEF
compound,measurement,value
"C=C(C)C1CC=C(C=O)CC1 (stereo not shown) [PAH, perillaldehyde]",IC50,31.3 µM
